Assay results from US10442810B2, “Pyrrolotriazine compounds as TAM inhibitors” (Incyte Corporation, priority 2016, dated 2019).

Experiments:
Tyro3 = Tyro3 (Homo sapiens (Human), UniProt Q06418); assay: TAM Enzymatic Assay (HTRF), Tyro3; assay type: biochemical; conditions: 0.366 nM Tyro3, 60 min room temperature
Protocol: (§1) The kinase assay buffer contained 50 mM HEPES, pH7.5, 10 mM MgCl2, 1 mM EGTA, 0.01% NP-40 and 2 mM DTT. 0.1 ul test compounds dissolved in DMSO were transferred from compound plates to white 384-well assay plates (Greiner […] plates). […] 4 ul enzyme solution (or assay buffer for the enzyme blank) was added to the appropriate wells in each plate, and then 4 ul/well substrate solution was added to initiate the reaction. The plate was protected from light and incubated at room temperature for 60 min. […] The plate was incubated for 1 h at room temperature, and HTRF (homogenous time resolved fluorescence) signal was measured on a PHERAstar FS plate reader (BMG labtech). Percentage of inhibition was calculated for each concentration and IC50 value was generated from curve fitting with GraphPad Prism software.

Axl = Axl (Homo sapiens (Human), UniProt P30530); assay: TAM Enzymatic Assay (HTRF), phosphor-Axl; assay type: biochemical; conditions: 5.1 nM phosphor-Axl, 60 min room temperature
Protocol: Autophosphorylation of Axl was carried out by incubating the recombinant Axl protein (Life Technologies, PV4275) in buffer containing 50 mM Tris, pH7.5, 0.2 mg/ml Axl, 5 mM ATP, 20 mM MgCl2 and 2 mM DTT at room temperature for 1 hour.
as §1

c-Mer = c-Mer (Homo sapiens (Human), UniProt Q12866); assay: TAM Enzymatic Assay (HTRF), c-Mer; assay type: biochemical; conditions: 0.0625 nM c-Mer, 60 min room temperature
Protocol: as §1

NK cells = conditions: Paolino et al., 2014; cited from earlier work
[1] = system: tumor models with different histologies; conditions: Paolino et al., 2014; cited from earlier work

Axl, sequence (P30530 26-894): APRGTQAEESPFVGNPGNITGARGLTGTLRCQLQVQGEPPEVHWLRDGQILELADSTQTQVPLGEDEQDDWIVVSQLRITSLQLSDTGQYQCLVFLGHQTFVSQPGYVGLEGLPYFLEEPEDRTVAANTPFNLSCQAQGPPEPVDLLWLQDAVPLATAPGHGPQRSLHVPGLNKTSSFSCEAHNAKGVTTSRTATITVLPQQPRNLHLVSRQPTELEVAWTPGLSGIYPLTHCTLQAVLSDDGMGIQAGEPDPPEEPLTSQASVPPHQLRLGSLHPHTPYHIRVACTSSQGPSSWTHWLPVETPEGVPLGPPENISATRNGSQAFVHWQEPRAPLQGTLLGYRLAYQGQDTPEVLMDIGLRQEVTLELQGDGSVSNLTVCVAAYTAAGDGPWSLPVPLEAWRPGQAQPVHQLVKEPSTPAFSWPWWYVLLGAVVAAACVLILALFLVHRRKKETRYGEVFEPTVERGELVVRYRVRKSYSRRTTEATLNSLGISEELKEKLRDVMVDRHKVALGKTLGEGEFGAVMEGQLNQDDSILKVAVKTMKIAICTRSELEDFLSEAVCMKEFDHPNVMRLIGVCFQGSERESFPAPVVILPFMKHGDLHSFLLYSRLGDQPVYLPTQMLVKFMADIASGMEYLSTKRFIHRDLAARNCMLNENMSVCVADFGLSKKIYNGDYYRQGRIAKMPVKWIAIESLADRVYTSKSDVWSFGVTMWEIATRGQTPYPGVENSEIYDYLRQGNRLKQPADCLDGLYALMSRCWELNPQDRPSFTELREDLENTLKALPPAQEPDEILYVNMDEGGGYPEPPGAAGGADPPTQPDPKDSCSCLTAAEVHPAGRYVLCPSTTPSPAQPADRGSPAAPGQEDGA
Tyro3, sequence (Q06418 41-890): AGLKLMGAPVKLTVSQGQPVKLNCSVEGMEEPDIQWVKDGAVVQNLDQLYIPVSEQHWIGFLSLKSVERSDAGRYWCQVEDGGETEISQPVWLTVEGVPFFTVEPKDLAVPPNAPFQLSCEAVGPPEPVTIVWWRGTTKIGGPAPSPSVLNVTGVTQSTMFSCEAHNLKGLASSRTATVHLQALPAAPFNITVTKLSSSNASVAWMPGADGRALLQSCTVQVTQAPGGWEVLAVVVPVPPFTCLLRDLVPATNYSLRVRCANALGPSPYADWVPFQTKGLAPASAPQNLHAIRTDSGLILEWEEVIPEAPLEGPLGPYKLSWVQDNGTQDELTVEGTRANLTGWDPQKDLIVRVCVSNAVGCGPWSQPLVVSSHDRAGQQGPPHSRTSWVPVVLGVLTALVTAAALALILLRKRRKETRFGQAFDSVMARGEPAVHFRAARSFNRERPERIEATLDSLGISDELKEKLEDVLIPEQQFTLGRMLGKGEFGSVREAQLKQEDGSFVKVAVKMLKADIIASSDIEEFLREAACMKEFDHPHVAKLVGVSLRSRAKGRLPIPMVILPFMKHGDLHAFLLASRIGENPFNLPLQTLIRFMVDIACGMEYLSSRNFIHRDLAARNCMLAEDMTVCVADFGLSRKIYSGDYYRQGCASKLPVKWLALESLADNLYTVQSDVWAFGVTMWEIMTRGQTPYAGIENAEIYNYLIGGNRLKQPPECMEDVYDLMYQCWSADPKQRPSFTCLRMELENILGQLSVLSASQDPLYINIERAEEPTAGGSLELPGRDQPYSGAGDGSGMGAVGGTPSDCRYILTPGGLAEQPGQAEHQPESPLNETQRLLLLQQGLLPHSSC
c-Mer, sequence (Q12866 21-999): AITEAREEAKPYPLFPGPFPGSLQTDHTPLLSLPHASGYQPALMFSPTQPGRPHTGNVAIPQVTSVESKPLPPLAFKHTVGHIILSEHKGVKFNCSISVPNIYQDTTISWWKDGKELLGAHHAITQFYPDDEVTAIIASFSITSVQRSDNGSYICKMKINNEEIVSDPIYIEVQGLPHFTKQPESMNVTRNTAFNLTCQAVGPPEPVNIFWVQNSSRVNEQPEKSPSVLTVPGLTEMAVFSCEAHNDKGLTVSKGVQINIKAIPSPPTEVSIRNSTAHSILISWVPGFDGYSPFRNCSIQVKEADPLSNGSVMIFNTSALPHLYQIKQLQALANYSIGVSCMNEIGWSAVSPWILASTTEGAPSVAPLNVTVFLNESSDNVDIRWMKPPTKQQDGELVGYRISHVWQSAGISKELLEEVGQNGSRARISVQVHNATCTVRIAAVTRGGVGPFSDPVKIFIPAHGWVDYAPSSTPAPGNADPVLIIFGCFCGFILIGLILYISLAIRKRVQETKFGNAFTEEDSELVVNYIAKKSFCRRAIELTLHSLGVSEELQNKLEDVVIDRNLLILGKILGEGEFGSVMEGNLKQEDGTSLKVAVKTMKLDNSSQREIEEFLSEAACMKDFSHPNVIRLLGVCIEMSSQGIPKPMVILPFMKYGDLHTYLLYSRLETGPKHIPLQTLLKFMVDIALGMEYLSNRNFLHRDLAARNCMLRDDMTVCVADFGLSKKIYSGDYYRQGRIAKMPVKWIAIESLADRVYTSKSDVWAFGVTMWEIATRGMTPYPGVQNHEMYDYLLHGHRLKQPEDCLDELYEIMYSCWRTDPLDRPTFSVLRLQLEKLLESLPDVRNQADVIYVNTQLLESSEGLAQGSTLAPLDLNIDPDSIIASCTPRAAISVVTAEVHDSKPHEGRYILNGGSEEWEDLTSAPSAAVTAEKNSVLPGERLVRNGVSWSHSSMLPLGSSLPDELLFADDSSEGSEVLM

| IC50 (Tyro3) [nM] | IC50 (Axl) [nM] | IC50 (c-Mer) [nM] | SMILES | activation of NK cells (NK cells) | metastasis in tumor models [1] |
| --- | --- | --- | --- | --- | --- |
| > 100 | < 5 | – | CC(O)Cn1cc(C(=O)Nc2ccc(-c3cc(C4CCN(C(=O)C5CC5)CC4)n4ncnc(N)c34)cc2)c(=O)n(-c2ccccc2)c1=O (racemic) [Example 80, N-(4-(4-Amino-7-(1-(cyclopropanecarbonyl)piperidin-4-yl)pyrrolo[1,2-f][1,2,4]triazin-5-yl)phenyl)-1-(2-hydroxypropyl)-2,4-dioxo-3-phenyl-1,2,3,4-tetrahydropyrimidine-5-carboxamide] | – | – |
| – | < 5 | ≤ 5 | CC(C)n1cc(C(=O)Nc2ccc(-c3cc(C4CCN(C5CCN(C)C5=O)CC4)n4ncnc(N)c34)cc2)c(=O)n(-c2ccccc2)c1=O (racemic) [Example 82, N-(4-(4-Amino-7-(1-(1-methyl-2-oxopyrrolidin-3-yl)piperidin-4-yl)pyrrolo[1,2-f][1,2,4]triazin-5-yl)phenyl)-1-isopropyl-2,4-dioxo-3-phenyl-1,2,3,4-tetrahydropyrimidine-5-carboxamide] | – | – |
| 10 to 100 | < 5 | ≤ 5 | CC(=O)c1cc(C(=O)Nc2ccc(-c3cc(C4CCN(C(=O)C(C)C)CC4)n4ncnc(N)c34)cc2)c(=O)n(-c2ccccc2)c1C [Example 112, 5-Acetyl-N-(4-(4-amino-7-(1-isobutyrylpiperidin-4-yl)pyrrolo[1,2-f][1,2,4]triazin-5-yl)phenyl)-6-methyl-2-oxo-1-phenyl-1,2-dihydropyridine-3-carboxamide] | – | – |
| – | – | – | CCOc1cn(-c2ccc(F)cc2C)nc1C(=O)Nc1ccc(Oc2ccnc3cc(OC)c(OC)cc23)c(F)c1 [LDC1267] | activates NK cells | blocks metastasis |
